# ChEMBL document CHEMBL5154892, “Structure-Based Optimization and Characterization of Macrocyclic Zika Virus NS2B-NS3 Protease Inhibitors” (J Med Chem, 2022)
# Active and inactive are the calls of the source. No cut-off for these calls is given here. *1 amine or outer side, *2 acyl side, *3 side chain or, on linkers, in order; H or OH if unused. Where a SMILES comes first, the peptide text is derived from it. [ ]: non-standard residue; d: D form. X2 = N=C(N)N[C@H](CCOCN[*:1])C(=O)[*:2]; X3 = O=C([C@@H](CN[*:1])Cc1ccccc1)[*:2]; X1 = O=C([C@H](CN[*:1])Cc1ccccc1)[*:2]; NMeβAla = CN(CCC(=O)[*:2])[*:1]; βAla = NCCC(=O)O; Sar = CNCC(=O)O
# Legend:
# [1] = Binding affinity to Zika virus NS2B-NS3 protease using Phac-Leu-Lys-Lys-Arg-AMC as substrate measured immediately upto 10 mins by fluorogenic assay
# [2] = Binding affinity to West Nile virus NSB2 (52 to 96 amino acids)-NS3 (1 to 184 amino acids) protease using Phac-Leu-Lys-Lys-Arg-AMC as substrate measured immediately upto 10 mins by fluorogenic assay
# Trypsin (Sus scrofa) = Trypsin (Sus scrofa) (UniProt P00761); test: Inhibition of porcine trypsin at 100 uM using Mes-D-Arg-Gly-Arg-AMC a substrate by fluorescence plate reader analysis
# A549 [3] = test: Cytotoxicity against human A549 cells assessed as cell viability upto 80 uM and measured after 24 to 48 hrs by PrestoBlue dye based microplate reader analysis; assay type: toxicity; settings: a549, 80 µM, time 24-48 hrs
# Prothrombin (Bos taurus) = Prothrombin (Bos taurus) (UniProt P00735); test: Inhibition of bovine thrombin at 100 uM using Tos-Gly-Pro-Arg-AMC as substrate by fluorescence plate reader analysis
# Zika virus [4] = test: Antiviral activity against Zika virus infected in human A549 cells assessed as reduction in luciferase activity at 20 uM measured up to 48 hrs post infection by luciferase assay; assay type: functional, organism-based
# Zika virus [5] = test: Antiviral activity against ZIKV H/PF/2013 infected in human A549 cells assessed as reduction in extracellular virus titer in cell supernatant at 80 uM measured after 24 hrs post infection by plaque assay based crystal violet staining analysis; assay type: functional, organism-based
# Zika virus [6] = test: Antiviral activity against ZIKV H/PF/2013 infected in human A549 cells assessed as reduction in extracellular virus titer in cell supernatant at 80 uM measured after 48 hrs post infection by plaque assay based crystal violet staining analysis; assay type: functional, organism-based
# Zika virus [7] = test: Antiviral activity against ZIKV H/PF/2013 infected in human A549 cells assessed as reduction in number of infected cells at 80 uM measured after 24 hrs post infection by immunofluorescence microscopic analysis relative to control; assay type: functional, organism-based
# Zika virus [8] = test: Antiviral activity against ZIKV H/PF/2013 infected in human A549 cells assessed as reduction in intracellular virus titer at 80 uM measured after 48 hrs post infection by plaque assay based crystal violet staining analysis; assay type: functional, organism-based
# A549 [9] = test: Cytotoxicity against human A549 cells assessed as cell viability at 2.5 to 160 uM measured after 24 to 48 hrs by PrestoBlue dye based microplate reader analysis; assay type: toxicity; settings: a549, 160 µM, dose lower 2.5 µM, time lower 24 hrs, dose upper 160 µM, time upper 48 hrs
# Trypsin (Sus scrofa), sequence (P00761 whole entry): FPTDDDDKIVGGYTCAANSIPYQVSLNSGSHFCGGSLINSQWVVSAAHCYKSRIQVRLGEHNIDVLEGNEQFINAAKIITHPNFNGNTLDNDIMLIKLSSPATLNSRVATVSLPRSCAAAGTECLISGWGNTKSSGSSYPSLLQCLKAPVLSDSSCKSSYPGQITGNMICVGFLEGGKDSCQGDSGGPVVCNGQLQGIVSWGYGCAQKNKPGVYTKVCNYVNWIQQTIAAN
SMILES,Ki [1] [nM],Ki [2] [nM],further results
CC(C)[C@H]1NC(=O)[C@H](NC(=N)N)CCOCNC(=O)[C@H](CCCCN)NC(=O)[C@H](CCCCN)NC(=O)Cc2cccc(c2)CNC1=O,7.74,439,–
N=C(N)N[C@@H]1CCOCNC(=O)[C@H](CCCCN)NC(=O)[C@H](CCCCN)NC(=O)[C@H](Cc2ccccc2)NC(=O)CNC(=O)CNC1=O,31.9,657,–
N=C(N)N[C@@H]1CCOCNC(=O)[C@H](CCCCN)NC(=O)[C@H](CCCCN)NC(=O)CCNC(=O)CNC(=O)CNC1=O (cyclo(GG[βAla]KK[X2])),–,–,inhibition (Trypsin (Sus scrofa)): < 10%; Activity (A549 [3]): Non-Toxic; inhibition (Prothrombin (Bos taurus)): < 30%; Activity (Zika virus [4]): Active
CC(C)[C@@H]1NC(=O)CCNC(=O)CNC(=O)[C@H](NC(=N)N)CCOCNC(=O)[C@H](CCCCN)NC(=O)[C@H](CCCCN)NC1=O,340,39700,–
CC(C)C[C@@H]1NC(=O)CCNC(=O)CNC(=O)[C@H](NC(=N)N)CCOCNC(=O)[C@H](CCCCN)NC(=O)[C@H](CCCCN)NC1=O,124,10300,–
C[C@H]1NC(=O)CCNC(=O)CNC(=O)[C@H](NC(=N)N)CCOCNC(=O)[C@H](CCCCN)NC(=O)[C@H](CCCCN)NC1=O,5.62,1430,–
N=C(N)N[C@@H]1CCOCNC(=O)[C@H](CCCCN)NC(=O)[C@H](CCCCN)NC(=O)[C@@H](CCc2ccccc2)NC(=O)CCNC(=O)CNC1=O,10.3,1290,–
CN1CCC(=O)N[C@@H](CCCCN)C(=O)N[C@@H](CCCCN)C(=O)NCOCC[C@@H](NC(=N)N)C(=O)NCC(=O)NCC1=O (cyclo(GG[NMeβAla]KK[X2])),490,36900,–
N=C(N)N[C@@H]1CCOCNC(=O)[C@H](CCCCN)NC(=O)[C@H](CCCCN)NC(=O)[C@@H](Cc2ccccc2)CNC(=O)CNC(=O)CNC1=O (cyclo(GG[X1]KK[X2])),63,14800,inhibition (Trypsin (Sus scrofa)): < 10%; inhibition (Prothrombin (Bos taurus)): < 30%
N=C(N)N[C@@H]1CCOCNC(=O)[C@H](CCCCN)NC(=O)[C@H](CCCCN)NC(=O)Cc2cccc(c2)CNC(=O)CNC1=O,–,–,Activity (Zika virus [5]): Active; inhibition (Trypsin (Sus scrofa)): < 10%; Activity (A549 [3]): Non-Toxic; inhibition (Prothrombin (Bos taurus)): < 30%; Activity (Zika virus [4]): Active
N=C(N)N[C@@H]1CCOCNC(=O)[C@H](CCCCN)NC(=O)[C@H](CCCCN)NC(=O)[C@@H](c2ccccc2)NC(=O)CCNC(=O)CNC1=O,4.84,371,inhibition (Trypsin (Sus scrofa)): 33%; inhibition (Prothrombin (Bos taurus)): 55%
N=C(N)N[C@@H]1CCOCNC(=O)[C@H](CCCCN)NC(=O)[C@H](CCCCN)NC(=O)Cc2cccc(c2)CNC(=O)[C@@H](CCC2CCCCC2)NC1=O.O=C(O)C(F)(F)F,2.33,219,Activity (Zika virus [6]): Active; Activity (Zika virus [5]): Active; Activity (Zika virus [7]): Active; inhibition (Trypsin (Sus scrofa)): < 10%; Activity (Zika virus [8]): Active; Activity (A549 [3]): Non-Toxic; inhibition (Prothrombin (Bos taurus)): < 30%; Activity (Zika virus [4]): Active
CC(C)[C@H]1NC(=O)CCNC(=O)CNC(=O)[C@H](NC(=N)N)CCOCNC(=O)[C@H](CCCCN)NC(=O)[C@H](CCCCN)NC1=O.O=C(O)C(F)(F)F,8.26,1680,Activity (A549 [3]): Non-Toxic
N=C(N)N[C@@H]1CCOCNC(=O)[C@H](CCCCN)NC(=O)[C@H](CCCCN)NC(=O)[C@@H](Cc2ccccc2)NC(=O)CNC(=O)CNC1=O (racemic),139,17300,–
N=C(N)N[C@@H]1CCOCNC(=O)[C@H](CCCCN)NC(=O)[C@H](CCCCN)NC(=O)CCNC(=O)Cc2cccc(c2)CNC1=O,81.4,56500,–
CN1CC(=O)NCCC(=O)N[C@@H](CCCCN)C(=O)N[C@@H](CCCCN)C(=O)NCOCC[C@@H](NC(=N)N)C(=O)NCC1=O (cyclo(G[Sar][βAla]KK[X2])),333,30700,–

SMILES,Ki [1] [nM],Ki [2] [nM],further results
CN1CC(=O)NCC(=O)NCCC(=O)N[C@@H](CCCCN)C(=O)N[C@@H](CCCCN)C(=O)NCOCC[C@@H](NC(=N)N)C1=O (cyclo(G[βAla]KK[X2][Sar])),332,30500,–
N=C(N)N[C@@H]1CCOCNC(=O)[C@H](CCCCN)NC(=O)[C@H](CCCCN)NC(=O)[C@H]2CCCN2C(=O)CCNC(=O)CNC1=O,21,2590,–
N=C(N)N[C@@H]1CCOCNC(=O)[C@H](CCCCN)NC(=O)[C@H](CCCCN)NC(=O)Cc2cccc(c2)CNC(=O)[C@@H](CC2CCCCC2)NC1=O,3.59,395,inhibition (Trypsin (Sus scrofa)): < 10%; inhibition (Prothrombin (Bos taurus)): < 30%
N=C(N)N[C@@H]1CCOCNC(=O)[C@H](CCCCN)NC(=O)[C@H](CCCCN)NC(=O)[C@H](Cc2ccccc2)CNC(=O)CNC(=O)CNC1=O (cyclo(GG[X3]KK[X2])),86,6490,–
C[C@@H]1NC(=O)CNC(=O)CNC(=O)[C@H](NC(=N)N)CCOCNC(=O)[C@H](CCCCN)NC(=O)[C@H](CCCCN)NC1=O,92.2,1170,–
N=C(N)N[C@@H]1CCOCNC(=O)[C@H](CCCCN)NC(=O)[C@H](CCCCN)NC(=O)[C@@H](CC2CCCCC2)NC(=O)CCNC(=O)CNC1=O,6.94,735,inhibition (Trypsin (Sus scrofa)): < 10%; inhibition (Prothrombin (Bos taurus)): < 30%
N=C(N)N[C@@H]1CCOCNC(=O)[C@H](CCCCN)NC(=O)[C@H](CCCCN)NC(=O)Cc2cccc(c2)CNC(=O)[C@@H](CCc2ccccc2)NC1=O,6.02,331,–
N=C(N)N[C@@H]1CCOCNC(=O)[C@H](CCCCN)NC(=O)[C@H](CCCCN)NC(=O)[C@@H](Cc2ccccc2)NC(=O)CCNC(=O)CNC1=O.O=C(O)C(F)(F)F,3.06,1920,Activity (A549 [9]): Toxic; inhibition (Trypsin (Sus scrofa)): < 10%; inhibition (Prothrombin (Bos taurus)): < 30%; Activity (Zika virus [4]): Active
CCCC[C@H]1NC(=O)CCNC(=O)CNC(=O)[C@H](NC(=N)N)CCOCNC(=O)[C@H](CCCCN)NC(=O)[C@H](CCCCN)NC1=O,4.94,892,–
C[C@@H]1NC(=O)CCNC(=O)CNC(=O)[C@H](NC(=N)N)CCOCNC(=O)[C@H](CCCCN)NC(=O)[C@H](CCCCN)NC1=O,75,7760,–
N=C(N)N[C@@H]1CCOCNC(=O)[C@H](CCCCN)NC(=O)[C@H](CCCCN)NC(=O)CNC(=O)Cc2cccc(c2)CNC1=O,41.2,1760,–
CC(C)C[C@H]1NC(=O)CCNC(=O)CNC(=O)[C@H](NC(=N)N)CCOCNC(=O)[C@H](CCCCN)NC(=O)[C@H](CCCCN)NC1=O,4.3,1030,–
C[C@H]1NC(=O)CNC(=O)CNC(=O)[C@H](NC(=N)N)CCOCNC(=O)[C@H](CCCCN)NC(=O)[C@H](CCCCN)NC1=O,187,6970,–
N=C(N)N[C@@H]1CCOCNC(=O)[C@H](CCCCN)NC(=O)[C@H](CCCCN)NC(=O)Cc2cccc(c2)CNC(=O)[C@@H](Cc2ccccc2)NC1=O,5.34,693,–
CC(C)C[C@H]1NC(=O)[C@H](NC(=N)N)CCOCNC(=O)[C@H](CCCCN)NC(=O)[C@H](CCCCN)NC(=O)Cc2cccc(c2)CNC1=O,9.53,276,inhibition (Trypsin (Sus scrofa)): < 10%; inhibition (Prothrombin (Bos taurus)): < 30%
